Results reported in patent US6150414A, “Compositions and methods for treating viral infections” (priority 1992, dated 2000).
“And” between values parts separate entries of the source, which are not always exact repeats. Equal entries are not always repeated. Where two headings read alike, the source gives them in different places.

What was measured:
Friend Leukemia Virus [1] = experiment: FV-induced splenomegaly, PAC compounds in combination with AZT (Example 1(b)); assay type: in vivo, BALB/c mice; settings: 5X AZT 20 micrograms per mouse
Description: The effects of compositions according to the present invention on the increase in spleen size (splenomegaly) of BALB/c mice (Jackson Labs, Bar Harbor, ME) was examined. In these experiments, the virus (10^6 focus forming units--FFU) was inoculated intravenously and 100 micrograms of the compounds indicated in Table II were administered to the mice intraperitoneally 24 hours later. Each compound was administered once to two mice. The animals were sacrificed ten days later and their spleens weighed.
As used in Table II (and subsequent Tables of this Example l(a) and (b), "average percent inhibition" is calculated as follows: [formula] wherein "ASWNC" designates "average spleen weight of negative control"; "ASWE" designates "average spleen weight of experimental (treated) subject"; and "ASWPC" designates "average spleen weight of positive control". Average spleen weight is the numerical average of spleen weights of each experimental group (in Table II each such group includes two members).
The compounds of the present invention (100 micrograms per mouse) were also tested in combination with AZT (20 micrograms per mouse, twice a day) using otherwise the same methods as in Example 1(a) above. As representatives, compound #9 above (3-bromophenanthro (3,4-C), phenanthrene) and compound #10 (diindeno (1, 2, 3-CD/1', 2', 3'-IM) Perylene) were chosen. […] The compounds were administered i.p. either once or five times (once per day) alone or together with AZT (20 micrograms of AZT per mouse twice a day for five days?). Thus, in experiments where AZT was administered five times, a total of […] of AZT was received by each mouse (with a total of 500 micrograms of the PAC compound).

HIV = settings: human, in vivo; cited from earlier work
[2] = biological target: T1, Radiation Leukemia Virus reverse transcriptase (Radiation murine leukemia virus, UniProt P11227); experiment: Radiation Leukemia Virus reverse transcriptase assay, supernatants from infected AQR cells (Examples 4 and 9); assay type: biochemical; settings: Table VIII; for CPM: replicate
T1 construct: the reverse transcriptase of Radiation Leukemia Virus; endogenous in cells
In short: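 Supernatants from AQR cells chronically infected with RadLV were incubated 30 min on ice with the test compound (hypericin, protohypericin or HHA). Virus was pelleted at 100,000×g for 1 h at 4 °C, and the pellet was assayed for reverse transcriptase activity.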

Friend Virus = experiment: Friend Virus-induced splenomegaly, WIS compounds (Example 8); assay type: in vivo, mice; set-up: Actual Spleen Weight / Average Spleen Weight: unit not given here; settings: Table VII; for Actual Spleen Weight: single animal
In short: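 BALB/c mice were inoculated i.v. with Friend virus (10^6 FFU), then given compound i.p. once 24 h later. Spleens were weighed ten days later, and average percent inhibition of splenomegaly was calculated from spleen weights relative to negative and positive controls. WIS compounds were tested at different concentrations, three mice per group.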

retroviruses (virions) = experiment: Direct inactivation of retroviruses (virions) in vitro (Example 10); assay type: biochemical, Radiation Leukemia Virus; settings: Table IX
In short: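 RadLV-containing supernatants from chronically infected B10.T(6R) cells incubated 30 min on ice with hypericin or protohypericin. Virions then pelleted at 100,000×g for 1 h at 4° C and assayed for reverse transcriptase activity. EC50 is the micromolar concentration inhibiting 50% of virus.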

Friend Leukemia Virus [3] = experiment: In vivo inhibition of Friend Leukemia Virus splenomegaly, intravenous 1-2 hours post infection (Example 10); set-up: species or system mice; settings: Mus musculus, read-out: EC50 for FV-induced splenomegaly
Description: (§1) (3) In vivo inhibition of Friend Leukemia Virus Splenomegaly performed as described in Example 1 above except that the compounds were administered intravenously 1-2 hours post infection.
The results presented above in Table IX are presented as EC50 concentrations. These are the effective concentrations which inhibit 50% of the viruses in micromolar concentrations.

[4] = Stability to light and pH; assay type: physicochemical
retroviruses = experiment: Comparison over two in vitro and one in vivo biological assays (Example 10); settings: Example 10, structural comparison
Description: In order to investigate the structural features of hypericin which are essential for antiretroviral activity, numerous analogs and precursors of hypericin were examined for activity in two in vitro and one in vivo biological assay.
(1) Direct inactivation of retroviruses in vitro, performed as in Example 3 above;
as §1

[5] = biological target: T1, Radiation Leukemia Virus reverse transcriptase; experiment: Reverse transcriptase assay of Radiation Leukemia Virus from B10.T(6R) cell supernatants (Example 3); assay type: biochemical; settings: for Average CPM / CPM / Average percent inhibition: Table V; for CPM: replicate
Description: Supernatants (10 ml/tube) from B10.T(6R) cells (Meruelo et al. J. Exp. Med. 147: 470-487, 1978) chronically infected with Radiation Leukemia Virus (RadLV) were obtained by centrifugation of cells in culture at 4° C., 3500 rpm for 15 minutes. The top 2/3 of the supernatant were removed and aliquots were incubated for 30 minutes on ice with the indicated amounts of hypericin or protohypericin. […] Thereafter, supernatants were centrifuged at 100,000×g using a TI70 rotor (Beckman Instruments) for 1 hour at 4° C. The pellet was […] and analyzed for reverse transcriptase activity as follows.
The reverse transcriptase assay was performed in a volume of 100 microliters containing the following components:
The reverse transcriptase assay provides a measure of the antiviral activity of the compounds tested by reference to the observed decrease in activity of this enzyme.
In Table V, "CPM" is "counts per minute", "Average" is the numerical average of CPM values within each group of animals.

Cc1cn([C@H]2C[C@H](N=[N+]=[N-])[C@@H](CO)O2)c(=O)[nH]c1=O [AZT, 3'-azido-3'-dideoxythymidine, reference compound]
% Inhibition (Friend Leukemia Virus [1]): 39%
Average Spleen Weight (Friend Leukemia Virus [1]): 1.3895
Spleen weight (Friend Leukemia Virus [1]; single animal): 1.3744 and 1.4046
clinical toxicity of AZT (HIV): dose-dependent suppression of bone marrow, resulting in anemia and leukopenia

Cc1cc(O)c2cc3c(O)cc(O)c4c5c(O)cc(O)c6cc7c(O)cc(C)c8c1c2c(c34)c(c78)c65 [WIS-5, desoxyhypericin]
Average CPM ([2]; 0.05 micrograms): 193,017 CPM
CPM ([2]; 0.05 micrograms): 183,654 CPM and 202,380 CPM
Average CPM ([2]; 0.1 micrograms): 171,635 CPM
CPM ([2]; 0.1 micrograms): 172,984 CPM and 170,286 CPM
Average CPM ([2]; 0.5 micrograms): 249,351 CPM
CPM ([2]; 0.5 micrograms): 240,372 CPM and 258,330 CPM
Average CPM ([2]; 1 microgram): 251,168 CPM
CPM ([2]; 1 microgram): 238,782 CPM and 263,554 CPM
Average CPM ([2]; 2 micrograms): 205,469 CPM
CPM ([2]; 2 micrograms): 216,764 CPM and 194,174 CPM
Average CPM ([2]; 5 micrograms): 236,878 CPM
CPM ([2]; 5 micrograms): 220,588 CPM and 253,168 CPM
Average CPM ([2]; 10 micrograms): 177,364 CPM
CPM ([2]; 10 micrograms): 168,008 CPM and 186,720 CPM
inhibition at 50 ng ([2]; 0.5 h, 0.05 micrograms): 76.4%
inhibition at 0.0001 mg ([2]; 0.5 h, 0.1 micrograms): 79%
inhibition at 0.0005 mg ([2]; 0.5 h, 0.5 micrograms): 69.5%
inhibition at 0.001 mg ([2]; 0.5 h, 1 microgram): 69.2%
inhibition at 0.002 mg ([2]; 0.5 h, 2 micrograms): 74.8%
inhibition at 0.005 mg ([2]; 0.5 h, 5 micrograms): 71%
inhibition at 0.01 mg ([2]; 0.5 h, 10 micrograms, read-out: Average % Inhibition): 78.3%
Average % Inhibition (Friend Virus; 1 microgram): 5.9%
Average Spleen Weight (Friend Virus; 1 microgram): 0.9197
Actual Spleen Weight (Friend Virus; 1 microgram): 0.9062 and 0.9528 and 0.9001
Average % Inhibition (Friend Virus; 10 micrograms): 6.5%
Average Spleen Weight (Friend Virus; 10 micrograms): 0.9147
Actual Spleen Weight (Friend Virus; 10 micrograms): 0.9126 and 0.8898 and 0.9417
Average % Inhibition (Friend Virus; 50 micrograms): 19.3%
Average Spleen Weight (Friend Virus; 50 micrograms): 0.8134
Actual Spleen Weight (Friend Virus; 50 micrograms): 0.7817 and 0.8389 and 0.8196
Average % Inhibition (Friend Virus; 150 micrograms): 35.2%
Average Spleen Weight (Friend Virus; 150 micrograms): 0.6879
Actual Spleen Weight (Friend Virus; 150 micrograms): 0.6919 and 0.6790 and 0.6927
EC50 (retroviruses (virions)): > 21 µM
EC50 (Friend Leukemia Virus [3]; i.v. 1-2 hours post infection, Table IX): > 316 µM
stability vs pH ([4]; neutral or acetic pH): decomposses readily in neutral or acetic pH
loss of antiviral activity relative to parent (retroviruses): significant loss of in vivo reverse transcriptase inhibitory activity

Cc1cc(O)c2c(=O)c3c(O)cc(O)c4c5c(O)cc(O)c6c(=O)c7c(O)cc(C)cc7c(c65)c(c2c1)c34 [protohypericin, Protohypericin]
Average CPM ([5]; 0.05 micrograms): 309,103 CPM
CPM ([5]; 0.05 micrograms): 310,952 CPM and 307,254 CPM
Average CPM ([5]; 0.1 micrograms): 261,083 CPM
CPM ([5]; 0.1 micrograms): 216,824 CPM and 305,342 CPM
Average CPM ([5]; 0.5 micrograms): 257,879 CPM
CPM ([5]; 0.5 micrograms): 264,710 CPM and 251,048 CPM
Average CPM ([5]; 1 microgram): 227,614 CPM
CPM ([5]; 1 microgram): 192,184 CPM and 263,044 CPM
Average CPM ([5]; 5 micrograms): 12,633 CPM
Average percent inhibition ([5]; 5 micrograms): 94.0%
CPM ([5]; 5 micrograms): 12,358 CPM and 12,908 CPM
Average CPM ([5]; 10 micrograms): 185,539 CPM
Average percent inhibition ([5]; 10 micrograms): 11.3%
CPM ([5]; 10 micrograms): 202,656 CPM and 168,422 CPM
Average CPM ([5]; 50 micrograms): 71,641 CPM
Average percent inhibition ([5]; 50 micrograms): 65.8%
CPM ([5]; 50 micrograms): 75,816 CPM and 67,466 CPM
Average CPM ([5]; 100 micrograms): 10,281 CPM
Average percent inhibition ([5]; 100 micrograms): 95.1%
CPM ([5]; 100 micrograms): 8,818 CPM and 11,744 CPM
inhibition of RadLV reverse transcriptase activity ([5]; Example 3): significantly inhibited the reverse transcriptase activity of RadLV
concentration required relative to hypericin for the same degree of RT inhibition ([5]; RadLV, vs hypericin): 10 to 100 fold
EC50 (retroviruses (virions)): 7.9 µM
EC50 (Friend Leukemia Virus [3]): 98 µM
stability to light ([4]; irradiation / exposure to light): converts to hypericin upon exposure to light
